What was measured:
Type in all cases: cell-based
[1] = system: A549; experiment: CellTiter-Blue cell growth inhibition assay, A549; conditions: Homo sapiens, A549, 48 h
Method: (§1) Duplicate experiments were performed using the CellTiter-Blue® Cell Viability Assay to determine IC50 values for Compound A, Compound B and Compound C against each cell line. The general methodology for preparation of test articles described in Example 6 was used. The test compounds compound A, compound C disodium salt and compound B ½ maleate salt were initially formulated as 100× stock solutions at a concentration of 10 mg/mL in the appropriate diluents (DMSO for compounds). These stock solutions were then further diluted in cell culture medium to achieve lower concentrations of 100, 50, 25, 12.5, 6.25 and 3.125, 1.563, 0.781, 0.390 and 0.195 μM of active component. The specific cancer cells were A549, HCT 116, MCF-7 and MIA PaCa-2.
(§2) Human cancer cell types were: HTC-116 (colon); A549 (Lung); HT29 (colon); MCF-7; Mia PaCa-2 (pancreas)
(§3) Cells were seeded in duplicate at 3-4,000 per microtitre well in 50 μl of cell culture medium . After 24 hours, 50 μL of test article or vehicle control prepared in medium at 2× required concentration were added to each well. Cancer cells were allowed to grow in the presence of drug for 48 hours before cell growth relative to untreated control wells was determined with CellTiter-Blue® Cell Viability Assay.
(§4) IC50 values were calculated using Prism 6 for Mac OS X using a nonlinear regression (log(inhibitor) vs. response—Variable slope (four parameters)

[2] = system: HCT 116; experiment: CellTiter-Blue cell growth inhibition assay, HCT 116; conditions: Homo sapiens, HCT-116, 48 h
Method: as §1, §2, §3, §4

[3] = system: MCF-7; experiment: CellTiter-Blue cell growth inhibition assay, MCF-7; conditions: Homo sapiens, MCF7, 48 h
Method: as §1, §2, §3, §4

[4] = system: MIA PaCa-2; experiment: CellTiter-Blue cell growth inhibition assay, MIA PaCa-2; conditions: Homo sapiens, MIA PaCa-2, 48 h
Method: as §1, §2, §3, §4

[5] = system: PC-3; experiment: CellTiter-Blue cell growth inhibition assay, PC-3; conditions: Homo sapiens, PC-3, 48 h
[6] = system: washed human erythrocytes; experiment: in vitro haemolysis assay; conditions: for HD50 (50% haemolytic dose): washed human erythrocytes, 3 hours at 37° C.
Method: Haemolysis is a clinical condition where the red cell membrane is irreversibly damaged causing the release of its haemoglobin content. The in vitro haemolysis assay is a simple test to determine the haemolytic potential of a test substance on isolated and washed red blood cells.
In this example three compounds identified as compound A, compound C disodium salt and compound B ½ maleate salt and Saponin from Quillaja bark (S4521) were tested for haemolytic potential using washed human erythrocytes. The compounds were tested over a dose curve with a maximum concentration of […] and a lowest concentration of […]. The concentration range is […].
Briefly, whole blood (40 mL) was collected from a single human volunteer into multiple EDT vacutainer tubes. The red blood cells (RBC) were washed and isolated from plasma components by three centrifugations at 3000 rpm for 5 minutes in isotonic 0.9% sodium chloride. After the final wash, 0.1 mL volumes of red blood cells were added to each treatment tube.
The test compounds compound A, compound C disodium salt and compound B % maleate salt and the reference article (Saponin S4521) were initially formulated as 100× stock solutions at a concentration of 10 mg/mL in the appropriate diluents (DMSO for compounds, 0.9% NaCl for Saponin S4521). These stock solutions were then further diluted 1:100 in 0.9% NaCl to prepare the highest concentration of […] in 1% DMSO/NaCl. The highest concentration solutions were further diluted serially 1:2 in 1% DMSONaC1 to achieve lower concentrations of 50, 25, 12.5, 6.25, 3.125, 1.562 and 0.781 pg/ml of active component.
The positive control article (hypertonic solution of […]) was formulated by weighing 2.92 g NaCl in 10 mL MilliQ water. The negative control article (isotonic solution of 0.154M NaCl) was formulated on the day of use by dissolving 0.09 g NaCl into 10 mL MilliQ water. The vehicle used to dilute the test articles, 1% DMSO/NaCl, was used as the reagent blank in the assay.
Tubes containing cells and treatments were incubated at 37° C. with gentle agitation in an orbital mixer for 3 hours. At completion of the incubation, tubes were centrifuged at 3000 rpm for 5 minutes and 200 ptL aliquots of supernatant from each tube were transferred to a 96-well microplate for measurement of absorbance at 535 nm. A layout for the 96-Nell microplate is presented in Appendix 1. A 1% DMSO/NaCl vehicle in the absence of blood was used as the reagent blank in the assay.
Mean values for the negative (0.154M NaCl), positive (5M NaCl) and blank triplicate wells were determined. These were then used to calculate the % haemolysis for each sample according to the following formula: […]
Calculations of 50% haemolytic dose (HD50) was performed by non-linear regression analyses using a log(agonist) vs normalized response variable slope curve fit on GraphPad Prism for Mac OS X (Version 5.0c, GraphPad Software, California, USA).

[7] = HCT 116, Average ± SEM, 48 hours
[8] = HCT 116, Experiment 1, 48 hours
[9] = HCT 116, Experiment 2, 48 hours
[10] = MIA PaCa-2, Average ± SEM, 48 hours
[11] = MIA PaCa-2, Experiment 1, 48 hours
[12] = MIA PaCa-2, Experiment 2, 48 hours

Compound | IC50 ([1]; A549, Average ± SEM, 48 hours) [µM] | IC50 ([1]; A549, Experiment 1, 48 hours) [µM] | IC50 ([1]; A549, Experiment 2, 48 hours) [µM] | IC50 [2, 7] [µM] | IC50 [2, 8] [µM] | IC50 [2, 9] [µM] | IC50 ([3]; MCF-7, Average ± SEM, 48 hours) [µM] | IC50 ([3]; MCF-7, Experiment 1, 48 hours) [µM] | IC50 ([3]; MCF-7, Experiment 2, 48 hours) [µM] | IC50 [4, 10] [µM] | IC50 [4, 11] [µM] | IC50 [4, 12] [µM] | IC50 ([5]; PC-3, Average ± SEM, 48 hours) [µM] | IC50 ([5]; PC-3, Experiment 1, 48 hours) [µM] | IC50 ([5]; PC-3, Experiment 2, 48 hours) [µM] | percent haemolysis ([6]; concentration 0.781 μg/ml) [%] | percent haemolysis ([6]; concentration 1.562 μg/ml) [%] | percent haemolysis ([6]; concentration 3.125 μg/ml) [%] | percent haemolysis ([6]; concentration 6.25 μg/ml) [%] | percent haemolysis ([6]; concentration 12.5 μg/ml) [%] | other results
CC1O[C@@H](OC2C(O)[C@H](O)C(COC(=O)[C@@H](N)C(C)C)O[C@H]2O[C@H]2CC[C@@]3(C)C(=CC[C@H]4[C@@H]5C[C@@H]6O[C@]7(CC[C@@H](C)CO7)[C@@H](C)[C@@H]6[C@@]5(C)CC[C@@H]43)C2)C(O)C(O)[C@H]1O (stereo partly drawn) [Compound B] | 10.2 ± 0.31 | 9.86 | 10.5 | 12.4 ± 0.72 | 11.7 | 13.1 | 15 ± 0.32 | 14.7 | 15.3 | 9.39 ± 1.77 | 11.2 | 7.62 | 11.7 ± 0.7 | 12.4 | 11 | – | – | – | – | – | –
CC1O[C@@H](OC2C(O)[C@H](O)C(COP(=O)(O)O)O[C@H]2O[C@H]2CC[C@@]3(C)C(=CC[C@H]4[C@@H]5C[C@@H]6O[C@]7(CC[C@@H](C)CO7)[C@@H](C)[C@@H]6[C@@]5(C)CC[C@@H]43)C2)C(O)C(O)[C@H]1O (stereo partly drawn) [Compound C] | 2 ± 0.47 | 2.46 | 1.53 | 3.04 ± 1.05 | 4.08 | 1.99 | 4.17 ± 1.29 | 5.45 | 2.88 | 3.04 ± 0.49 | 3.52 | 2.55 | 3.25 ± 1.07 | 4.32 | 2.18 | – | – | – | – | – | –
CC1O[C@@H](OC2C(O)[C@H](O)C(COP(=O)([O-])O)O[C@H]2O[C@H]2CC[C@@]3(C)C(=CC[C@H]4[C@@H]5C[C@@H]6O[C@]7(CC[C@@H](C)CO7)[C@@H](C)[C@@H]6[C@@]5(C)CC[C@@H]43)C2)C(O)C(O)[C@H]1O.[Na+] (stereo partly drawn) [Compound C disodium salt] | – | – | – | – | – | – | – | – | – | – | – | – | – | – | – | 1.0 | 1.9 | 0.5 | 1.6 | 0.5 | percent haemolysis ([6]; concentration 25 μg/ml): 1.8%; percent haemolysis ([6]; concentration 50 μg/ml): 2.9%; percent haemolysis ([6]; concentration 100 μg/ml): 51.9%; HD50 (50% haemolytic dose) [6]: 145.70 µg/mL
CC1O[C@@H](OC2C(O)[C@H](O)C(CO)O[C@H]2O[C@H]2CC[C@@]3(C)C(=CC[C@H]4[C@@H]5C[C@@H]6O[C@]7(CC[C@@H](C)CO7)[C@@H](C)[C@@H]6[C@@]5(C)CC[C@@H]43)C2)C(O)C(O)[C@H]1O (stereo partly drawn) [Compound A, diosgenyl α-L-rhamnopyranosyl-(1→2)-β-D-glucopyranoside, reference compound] | 4.17 ± 0.57 | 4.74 | 3.6 | 5.1 ± 0.08 | 5.17 | 5.02 | 7.65 ± 0.27 | 7.91 | 7.38 | 5.63 ± 0.55 | 6.17 | 5.08 | 6.14 ± 0.29 | 6.42 | 5.85 | −0.3 | 0.5 | −0.1 | 3.2 | 13.4 | percent haemolysis ([6]; concentration 25 μg/ml): 36.0%; percent haemolysis ([6]; concentration 50 μg/ml): 86.7%; percent haemolysis ([6]; concentration 100 μg/ml): 103.2%; HD50 (50% haemolytic dose) [6]: 31.57 µg/mL
